Measurements taken from the supplement of paper PMC10307832.

Columns and labels:
Experiment in all cases: relative viability (nuclei count vs DMSO), 5 days (fraction); higher = more cells survive
NCI-H1915 = system: NCI-H1915
How it was run: (§1)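 Five library-drug doses in √10 steps were combined with a fixed anchor-drug dose, or a single drug was given alone, by pin tool to lung cancer cell lines in 1536-well plates the day after seeding. Nuclei were stained and counted after 5 days. Relative viability is the nuclei count in treated wells over that in vehicle wells, taken as the median of duplicate plates.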

NCI-H1651 = system: NCI-H1651
How it was run: as §1

NCI-H1355 = system: NCI-H1355
How it was run: as §1

SW 1573 = system: SW 1573
How it was run: as §1

NCI-H650 = system: NCI-H650
How it was run: as §1

HARA = system: HARA
How it was run: as §1

ABC-1 = system: ABC-1
How it was run: as §1

LC-2-ad = system: LC-2-ad
How it was run: as §1

UMC-11 = system: UMC-11
How it was run: as §1

HOP-62 = system: HOP-62
How it was run: as §1

NCI-H1993 = system: NCI-H1993
How it was run: as §1

NCI-H2126 = system: NCI-H2126
How it was run: as §1

COR-L23 = system: COR-L23
How it was run: as §1

EPLC-272H = system: EPLC-272H
How it was run: as §1

NCI-H2085 = system: NCI-H2085
How it was run: as §1

LU99A = system: LU99A
How it was run: as §1

NCI-H2023 = system: NCI-H2023
How it was run: as §1

PC-14 = system: PC-14
How it was run: as §1

NCI-H2347 = system: NCI-H2347
How it was run: as §1

HCC-15 = system: HCC-15
How it was run: as §1

NCI-H838 = system: NCI-H838
How it was run: as §1

Which results are given for `Cc1sc2c(c1C)C(c1ccc(Cl)cc1)=N[C@@H](CC(=O)OC(C)(C)C)c1nnc(C)n1-2` [JQ1] + COc1cc2c(Oc3ccc(NC(=O)C4(C(=O)Nc5ccc(F)cc5)CC4)cc3F)ccnc2cc1OCCCN1CCOCC1 [Foretinib] (partner 0.25 µM)?
relative viability (NCI-H1915; first compound 0.04 µM): 1.09; relative viability (NCI-H1915; first compound 0.1265 µM): 1.03; relative viability (NCI-H1915; first compound 0.4 µM): 0.732; relative viability (NCI-H1915; first compound 1.265 µM): 0.653; relative viability (NCI-H1915; first compound 4 µM): 0.449; relative viability (NCI-H1651; first compound 0.04 µM): 0.904; relative viability (NCI-H1651; first compound 0.1265 µM): 0.787; relative viability (NCI-H1651; first compound 0.4 µM): 0.625; relative viability (NCI-H1651; first compound 1.265 µM): 0.352; relative viability (NCI-H1651; first compound 4 µM): 0.365; relative viability (NCI-H1355; first compound 0.04 µM): 0.925; relative viability (NCI-H1355; first compound 0.1265 µM): 0.936; relative viability (NCI-H1355; first compound 0.4 µM): 0.735; relative viability (NCI-H1355; first compound 1.265 µM): 0.677; relative viability (NCI-H1355; first compound 4 µM): 0.562; relative viability (SW 1573; first compound 0.04 µM): 0.907; relative viability (SW 1573; first compound 0.1265 µM): 0.837; relative viability (SW 1573; first compound 0.4 µM): 0.777; relative viability (SW 1573; first compound 1.265 µM): 0.439; relative viability (SW 1573; first compound 4 µM): 0.384; relative viability (NCI-H650; first compound 0.04 µM): 0.996; relative viability (NCI-H650; first compound 0.1265 µM): 0.717; relative viability (NCI-H650; first compound 0.4 µM): 0.687; relative viability (NCI-H650; first compound 1.265 µM): 0.385; relative viability (NCI-H650; first compound 4 µM): 0.294; relative viability (HARA; first compound 0.04 µM): 0.89; relative viability (HARA; first compound 0.1265 µM): 0.647; relative viability (HARA; first compound 0.4 µM): 0.572; relative viability (HARA; first compound 1.265 µM): 0.343; relative viability (HARA; first compound 4 µM): 0.227; relative viability (ABC-1; first compound 0.04 µM): 0.916; relative viability (ABC-1; first compound 0.1265 µM): 0.859; relative viability (ABC-1; first compound 0.4 µM): 0.89; relative viability (ABC-1; first compound 1.265 µM): 0.395; relative viability (ABC-1; first compound 4 µM): 0.399; relative viability (LC-2-ad; first compound 0.04 µM): 0.809; relative viability (LC-2-ad; first compound 0.1265 µM): 0.625; relative viability (LC-2-ad; first compound 0.4 µM): 0.538; relative viability (LC-2-ad; first compound 1.265 µM): 0.359; relative viability (LC-2-ad; first compound 4 µM): 0.266; relative viability (UMC-11; first compound 0.04 µM): 0.954; relative viability (UMC-11; first compound 0.1265 µM): 0.663; relative viability (UMC-11; first compound 0.4 µM): 0.372; relative viability (UMC-11; first compound 1.265 µM): 0.286; relative viability (UMC-11; first compound 4 µM): 0.238; relative viability (HOP-62; first compound 0.04 µM): 0.982; relative viability (HOP-62; first compound 0.1265 µM): 0.848; relative viability (HOP-62; first compound 0.4 µM): 0.348; relative viability (HOP-62; first compound 1.265 µM): 0.241; relative viability (HOP-62; first compound 4 µM): 0.124; relative viability (NCI-H1993; first compound 0.04 µM): 0.794; relative viability (NCI-H1993; first compound 0.1265 µM): 0.794; relative viability (NCI-H1993; first compound 0.4 µM): 0.682; relative viability (NCI-H1993; first compound 1.265 µM): 0.692; relative viability (NCI-H1993; first compound 4 µM): 0.738; relative viability (NCI-H2126; first compound 0.04 µM): 1.22; relative viability (NCI-H2126; first compound 0.1265 µM): 1.15; relative viability (NCI-H2126; first compound 0.4 µM): 1.03; relative viability (NCI-H2126; first compound 1.265 µM): 0.655; relative viability (NCI-H2126; first compound 4 µM): 0.693; relative viability (COR-L23; first compound 0.04 µM): 0.98; relative viability (COR-L23; first compound 0.1265 µM): 0.73; relative viability (COR-L23; first compound 0.4 µM): 0.892; relative viability (COR-L23; first compound 1.265 µM): 0.663; relative viability (COR-L23; first compound 4 µM): 0.432; relative viability (EPLC-272H; first compound 0.04 µM): 0.639; relative viability (EPLC-272H; first compound 0.1265 µM): 0.508; relative viability (EPLC-272H; first compound 0.4 µM): 0.454; relative viability (EPLC-272H; first compound 1.265 µM): 0.247; relative viability (EPLC-272H; first compound 4 µM): 0.191; relative viability (NCI-H2085; first compound 0.04 µM): 0.855; relative viability (NCI-H2085; first compound 0.1265 µM): 0.821; relative viability (NCI-H2085; first compound 0.4 µM): 0.578; relative viability (NCI-H2085; first compound 1.265 µM): 0.428; relative viability (NCI-H2085; first compound 4 µM): 0.37; relative viability (LU99A; first compound 0.04 µM): 0.821; relative viability (LU99A; first compound 0.1265 µM): 0.85; relative viability (LU99A; first compound 0.4 µM): 0.559; relative viability (LU99A; first compound 1.265 µM): 0.374; relative viability (LU99A; first compound 4 µM): 0.304; relative viability (NCI-H2023; first compound 0.04 µM): 0.779; relative viability (NCI-H2023; first compound 0.1265 µM): 0.816; relative viability (NCI-H2023; first compound 0.4 µM): 0.597; relative viability (NCI-H2023; first compound 1.265 µM): 0.252; relative viability (NCI-H2023; first compound 4 µM): 0.199; relative viability (PC-14; first compound 0.04 µM): 0.906; relative viability (PC-14; first compound 0.1265 µM): 0.645; relative viability (PC-14; first compound 0.4 µM): 0.625; relative viability (PC-14; first compound 1.265 µM): 0.582; relative viability (PC-14; first compound 4 µM): 0.477; relative viability (NCI-H2347; first compound 0.04 µM): 1.04; relative viability (NCI-H2347; first compound 0.1265 µM): 1.15; relative viability (NCI-H2347; first compound 0.4 µM): 1.02; relative viability (NCI-H2347; first compound 1.265 µM): 0.842; relative viability (NCI-H2347; first compound 4 µM): 0.393; relative viability (HCC-15; first compound 0.04 µM): 0.914; relative viability (HCC-15; first compound 0.4 µM): 0.767; relative viability (HCC-15; first compound 1.265 µM): 0.66; relative viability (HCC-15; first compound 4 µM): 0.589; relative viability (NCI-H838; first compound 0.04 µM): 1.08; relative viability (NCI-H838; first compound 0.1265 µM): 0.703; relative viability (NCI-H838; first compound 0.4 µM): 0.801; relative viability (NCI-H838; first compound 1.265 µM): 0.31; relative viability (NCI-H838; first compound 4 µM): 0.285
